We go through 5 compounds from US20050034187A1, “Modified tet-inducible system for regulation of gene expression in plants” (priority 2000, published 2005).

Data set [1] deals with wild type tet Receptor and TripleX-driven GUS gene (pAC489/pAC499 double transformants). In words: Seed germination test: induction of GUS gene in seedlings. It is filed as in vivo, tobacco. Conditions: for inducing activity (GUS reporter gene): seed germination test, FIG. 18. A general note: A reporter such as luciferase makes a cellular process visible.
Data set [2] concerns wild type tet Receptor and GUS gene controlled by TripleX promoter (pAC489/pAC499 double transformants). As to the kind of experiment: Induction of the tet system in protoplast assays (GUS fluorescent assay). Format: cell-based, tobacco. Conditions: for magnitude of derepression (induction of GUS): protoplasts, seventh day of cultivation, FIG. 17. The protocol: Logarithmic scale is used for concentration axis.
Protoplasts were cultivated in the dark at 26° C. […] 100 μl of supernatant was used for the assay.

Another data set concerns Mesophyll protoplasts. As to the kind of experiment: Toxicity of chemicals to protoplasts (division rate). Conditions: FIG. 17.
Data set [3] relates to tetracycline-sensitive bacteria. Conditions: concentrations of 0.3 mg/l and lower; according to supplier; cited from earlier work.
A further data set has as its system tobacco seedlings. As to the kind of experiment: Visual evaluation of seedlings for toxicity in seed germination test. The text has this: The purpose of this experiment was to determine the concentration curve for selected analogs. Seeds of homozygous tobacco carrying wild type tet Receptor and TripleX-driven GUS gene (pAC489/pAC499 double transformants) were germinated in presence of several analogs at different concentrations. Seedlings were visually evaluated for toxicity, collected and assayed. Each point on the graph represents an average of three samples.
Seeds of T2 homozygous tobacco carrying wild type tet Receptor and TripleX-driven GUS gene were germinated in the presence of several new analogs at different concentrations. Seedlings were visually evaluated for toxicity, collected and assayed.
The next step in evaluating the analogs was to determine their respective concentration curve. Seeds of homozygous tobacco carrying wild type tet Receptor and TripleX-driven GUS gene (pAC489/pAC499 double transformants) were germinated in the presence of several analogs at different concentrations. Seedlings were visually evaluated for toxicity, collected and assayed.

The target in the next data set is lac repressor (Escherichia coli, UniProt P03023). Conditions: Barkley and Bourgeois, 1980; cited from earlier work.
Sequence of lac repressor (P03023 whole entry): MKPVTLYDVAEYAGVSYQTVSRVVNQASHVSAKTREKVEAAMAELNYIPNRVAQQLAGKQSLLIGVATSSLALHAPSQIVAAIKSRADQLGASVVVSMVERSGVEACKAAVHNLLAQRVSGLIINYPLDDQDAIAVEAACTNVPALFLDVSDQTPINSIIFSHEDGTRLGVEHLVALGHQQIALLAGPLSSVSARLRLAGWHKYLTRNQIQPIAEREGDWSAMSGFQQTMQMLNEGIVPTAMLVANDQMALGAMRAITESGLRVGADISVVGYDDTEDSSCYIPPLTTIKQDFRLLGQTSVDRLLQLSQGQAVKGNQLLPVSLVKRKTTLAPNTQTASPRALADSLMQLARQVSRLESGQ
The subject of another data set is cells. Conditions: cited from earlier work.
For data set [4], the system named is pAC499 (TripleX/GUS) with pACAG084 ((OCS)3MAS/nTR) or pACAG049 (MAR-(OCS)3MAS/nTR). In words: Time series of GUS induction in whole rooted plants. It is filed as in vivo, tobacco. Conditions: roots, tetracycline 2 mg/l, FIG. 16. As for the experimental part:
FIG. 16—Induction of GUS Gene in Double Transformants: Time Series. Time series were run with the best double transformants carrying pAC499 (TripleX/GUS) and either of pACAG084 ((OCS)3MAS/nTR) or pACAG049 (MAR-(OCS)3MAS/nTR). Three weeks-old rooted plants were transferred from agar to magenta boxes with liquid medium and tetracycline 2 mg/l. Tissue samples were regularly taken from roots and assayed for GUS.
Time series were run with the best double transformants carrying pAC499 (TripleX/GUS) and either of pACAG084 ((OCS)3MAS/nTR) or pACAG049 (MAR-(OCS)3MAS/nTR). Three week-old rooted plants were transferred from agar to magenta boxes with liquid medium and tetracycline 2 mg/l. Tissue samples were regularly taken from leaves and roots and assayed for GUS. […] The latter result was consistently observed, as well as, in experiments from the literature.

SMILES strings stand for the structures. Entries after “also recorded” stand apart in the source; their conditions may differ.

Description for Mesophyll protoplasts: Mesophyll protoplasts were isolated from T2 transgenic tobacco carrying both wild type tet Receptor and GUS gene controlled by TripleX promoter (pAC489/pAC499 double transformants) and were cultivated at a concentration of 5×10^4 cells/ml in liquid KM medium supplemented with tet analogs at 2-5 mg/l in the dark at 26° C. Total and divided protoplasts were counted and GUS fluorescent assays were performed on the seventh day of cultivation. Toxicity of chemicals was evaluated by division rate—the number of divisions divided by the total number of viable cells and multiplied by 100. Each point on the graphs represents an average of three samples.
Protoplasts were cultivated in the dark at 26° C. First divisions were usually observed after 36-60 hours of cultivation; second and sometimes third divisions were visible beginning from the fifth day. Total and divided protoplasts were counted and GUS fluorescent assays performed on the seventh day. In all experiments protoplasts were counted in a fixed volume of 2 mm^3 using hemocytometer (Hausser Scientific Partnership). Toxicity of chemicals was evaluated by division rate—the number of divisions divided by the total number of viable cells and multiplied by 100. […] 100 μl of supernatant was used for the assay. […]

For the compound `Cc1c2c(c(O)c3c(O)cccc13)C(=O)[C@]1(O)C(=O)C(C(N)=O)=C(O)[C@@H](N(C)C)[C@@H]1C2` [1665-56-1, anhydrotetracycline], the “inducing activity (GUS reporter gene)” value in data set [1] was “negligible induction”. Besides, the “magnitude of derepression (induction of GUS)” value in data set [2] is on record as “not a good derepressing agent; also recorded: able to induce the system”.

Regarding `CN(C)C1C(=O)C(C(N)=O)=C(O)C2(O)C(=O)C3=C(O)c4c(O)cccc4CC3CC12` (centres unmarked) [95702-03-7, 6-deoxy-6-demethyl tetracycline], the “inducing activity (GUS reporter gene)” value in data set [1] is “higher than that of the industry standard, doxycycline”. Also, the “induction of the GUS reporter gene” value in data set [1] (summary of in vitro tests of several tetracycline analogs) is on record as “very good induction”. Besides, the “toxicity to plant cells” value with Mesophyll protoplasts is “the same magnitude of derepression and toxicity as tetracycline”. For the same compound, the “inducer potency compared with tetracycline” value in data set [2] (concentrations of 0.3 mg/l and lower) was “more potent inducer at concentrations of 0.3 mg/l and lower”. Also, the “magnitude of derepression (induction of GUS)” value in data set [2] is “the same magnitude of derepression and toxicity as tetracycline”. Moreover, in data set [3], the “toxicity to tetracycline-sensitive bacteria” value was “not toxic to tetracycline-sensitive bacteria”. In addition, the “toxicity compared with other inducers” value in the data set with tobacco seedlings (concentration curve experiment, FIG. 19) is “lower toxicity than doxycycline and tetracycline”.

As for `CN(C)C1C(=O)C(C(N)=O)=C(O)C2(O)C(=O)C3=C(O)c4c(O)ccc(Br)c4CC3CC12` (centres unmarked) [101057-85-6, 7-bromo-6-deoxy-6-demethyl tetracycline], in data set [1], the “inducing activity (GUS reporter gene)” value is “moderate inducer”.

Consider `CC(C)S[C@@H]1O[C@H](CO)[C@H](O)[C@H](O)[C@H]1O` [IPTG, isopropyl-B-D-thiogalactopyranoside], for which the “reduction of the affinity of repressor for the operator” value at lac repressor is 300 fold. Besides, the “toxicity of the level required to induce a lac repressor system” value in the data set with cells was “cytotoxic to cells”.

Take `CN(C)[C@@H]1C(O)=C(C(N)=O)C(=O)[C@@]2(O)C(O)=C3C(=O)c4c(O)cccc4[C@@](C)(O)[C@H]3C[C@@H]12` [tetracycline]: in data set [4], the “magnitude of induction at maximum” value was found to be 3.5 fold. Further, the “toxicity evaluation (growth of plantlets)” value in the data set on tobacco seedlings (concentration of 10 mg/l, FIG. 19 experiment) was “slightly stunted growth of plantlets”.
